From ChEMBL document CHEMBL6078713, “Synthesis and mechanistic studies of 4-aminoquinoline-Isatin molecular hybrids and Schiff's bases as promising antimicrobial agents” (Eur J Med Chem, 2025) come the findings set out here.

Values after ≈ are worked out from the molar mass of the structure shown.

For experiment [1], the system named is Escherichia coli. Put plainly: Antibacterial activity against Escherichia coli MTCC 443 assessed as diameter of zone of inhibition at 500 ug/ml by agar disk diffusion method. The class given is functional. To be noted: read-out: DIZ.
Experiment [2] relates to Enterococcus faecalis. Briefly: Antibacterial activity against Enterococcus faecalis MTCC 439 assessed as diameter of zone of inhibition at 500 ug/ml by agar disk diffusion method. The class given is functional. The conditions noted are these: read-out: DIZ.
Experiment [3] has as its system Bacillus subtilis. Put plainly: Antibacterial activity against Bacillus subtilis MTCC 736 assessed as diameter of zone of inhibition at 500 ug/ml by agar disk diffusion method. The conditions noted are these: read-out: DIZ. The class given is functional. In general terms: A growth-free zone around the sample is the usual read-out of agar diffusion tests.
The test system of experiment [4] is Staphylococcus aureus. Briefly: Antibacterial activity against Staphylococcus aureus MTCC 902 assessed as diameter of zone of inhibition at 500 ug/ml by agar disk diffusion method. The format is functional. The conditions noted are these: read-out: DIZ.
Experiment [5] has as its system Pseudomonas aeruginosa. Briefly: Antibacterial activity against Pseudomonas aeruginosa MTCC 2453 assessed as diameter of zone of inhibition at 500 ug/ml by agar disk diffusion method. The conditions noted are these: read-out: DIZ. The format is functional.
The test system of experiment [6] is Salmonella typhi. Briefly: Antibacterial activity against Salmonella typhi assessed as diameter of zone of inhibition at 500 ug/ml by agar disk diffusion method. The format is functional, Salmonella enterica subsp. enterica serovar Typhi. The conditions noted are these: Salmonella enterica, read-out: DIZ.
Experiment [7] relates to Escherichia coli. Put plainly: Antibacterial activity against Escherichia coli MTCC 443 assessed as inhibition of bacterial growth incubated overnight by serial dilution based spectrophotometer. The format is functional.
For experiment [8], the system named is Enterococcus faecalis. Briefly: Antibacterial activity against Enterococcus faecalis MTCC 439 assessed as inhibition of bacterial growth incubated overnight by serial dilution based spectrophotometer. The format is functional.
Experiment [9] concerns Bacillus subtilis. Briefly: Antibacterial activity against Bacillus subtilis MTCC 736 assessed as inhibition of bacterial growth incubated overnight by serial dilution based spectrophotometer. The format is functional.
Experiment [10] relates to Staphylococcus aureus. Put plainly: Antibacterial activity against Staphylococcus aureus MTCC 902 assessed as inhibition of bacterial growth incubated overnight by serial dilution based spectrophotometer. The format is functional.
The test system of experiment [11] is Pseudomonas aeruginosa. Briefly: Antibacterial activity against Pseudomonas aeruginosa MTCC 2453 assessed as inhibition of bacterial growth incubated overnight by serial dilution based spectrophotometer. The class given is functional.
Experiment [12] has as its system Salmonella typhi. Briefly: Antibacterial activity against Salmonella typhi assessed as inhibition of bacterial growth incubated overnight by serial dilution based spectrophotometer. The format is functional, Salmonella enterica subsp. enterica serovar Typhi. The conditions noted are these: Salmonella enterica.
Experiment [13] concerns Escherichia coli. Briefly: Bactericidal activity against Escherichia coli MTCC 443 assessed as inhibition of bacterial growth incubated overnight. The format is functional.
Experiment [14] has as its system Enterococcus faecalis. Briefly: Bactericidal activity against Enterococcus faecalis MTCC 439 assessed as inhibition of bacterial growth incubated overnight. The format is functional.
In experiment [15] the test system is Bacillus subtilis. Briefly: Bactericidal activity against Bacillus subtilis MTCC 736 assessed as inhibition of bacterial growth incubated overnight. The class given is functional.
The subject of experiment [16] is Staphylococcus aureus. Briefly: Bactericidal activity against Staphylococcus aureus MTCC 902 assessed as inhibition of bacterial growth incubated overnight. The format is functional.
The subject of experiment [17] is Escherichia coli. Put plainly: Ratio of MBC for antibacterial activity against Escherichia coli MTCC 443 to MIC for bactericidal activity against Escherichia coli MTCC 443. The format is functional.
For experiment [18], the system named is Enterococcus faecalis. Put plainly: Ratio of MBC for antibacterial activity against Enterococcus faecalis MTCC 439 to MIC for bactericidal activity against Enterococcus faecalis MTCC 439. The format is functional.
In experiment [19] the test system is Bacillus subtilis. Briefly: Ratio of MBC for antibacterial activity against Bacillus subtilis MTCC 736 to MIC for bactericidal activity against Bacillus subtilis MTCC 736. The class given is functional.
Experiment [20] concerns Pseudomonas aeruginosa. Briefly: Bactericidal activity against Pseudomonas aeruginosa MTCC 2453 assessed as inhibition of bacterial growth incubated overnight. The class given is functional.
Experiment [21] relates to Staphylococcus aureus. Briefly: Ratio of MBC for antibacterial activity against Staphylococcus aureus MTCC 902 to MIC for bactericidal activity against Staphylococcus aureus MTCC 902. The class given is functional.
In experiment [22] the test system is Pseudomonas aeruginosa. Put plainly: Ratio of MBC for antibacterial activity against Pseudomonas aeruginosa MTCC 2453 to MIC for bactericidal activity against Pseudomonas aeruginosa MTCC 2453. The format is functional.
The subject of experiment [23] is Salmonella typhi. Put plainly: Bactericidal activity against Salmonella typhi assessed as inhibition of bacterial growth incubated overnight. The class given is functional, Salmonella enterica subsp. enterica serovar Typhi. To be noted: Salmonella enterica.
In experiment [24] the test system is Salmonella typhi. Put plainly: Ratio of MBC for antibacterial activity against Salmonella typhi to MIC for bactericidal activity against Salmonella typhi. The class given is functional, Salmonella enterica subsp. enterica serovar Typhi.

Turning to `Clc1ccc2c(NCC/N=C/c3ccc[nH]3)ccnc2c1`, the zone of inhibition at 500 µg/mL in [1] came to 9 mm; in experiment [2], 8 mm; in experiment [3], 9 mm; in experiment [4], 10 mm; in [5], 7 mm; in experiment [6] it was 9 mm. Moreover, the MIC (in general, the lowest concentration found to suppress growth) in [7] is 256 µg/mL (≈ 857 µM); in [8], 512 µg/mL (≈ 1710 µM); in experiment [9], 512 µg/mL (≈ 1710 µM); in experiment [10], 512 µg/mL (≈ 1710 µM); in [11], greater than 512 µg/mL; in experiment [12] it was greater than 512 µg/mL. Moreover, the MBC – broadly, the lowest tested concentration that kills the bacteria rather than only halting them – is 512 µg/mL (≈ 1710 µM) in [13], 512 µg/mL (≈ 1710 µM) in experiment [14], 512 µg/mL (≈ 1710 µM) in [15] and greater than 512 µg/mL in experiment [16]. Further, the Ratio in experiment [17] came to 2; in [18], 1; in [19], 1.
On to `Cc1cccc2c1NC(=O)/C2=N\CCNc1ccnc2cc(Cl)ccc12`, for which the zone of inhibition at 500 µg/mL in experiment [1] was determined as 11 mm; in experiment [3], 12 mm; in [4] it was 11 mm; in experiment [5], 12 mm. In addition, the MIC is 256 µg/mL (≈ 702 µM) in experiment [7]; greater than 512 µg/mL in [8]; 256 µg/mL (≈ 702 µM) in experiment [9]; 256 µg/mL (≈ 702 µM) in experiment [10]; 256 µg/mL (≈ 702 µM) in experiment [11]; greater than 512 µg/mL in experiment [12]. The MBC in experiment [13] is greater than 512 µg/mL; in [15] it was greater than 512 µg/mL; in experiment [16] it was 256 µg/mL (≈ 702 µM); in [20], greater than 512 µg/mL. Besides, the Ratio in [21] is 1.
Turning to `COc1ccc(/C=N/CCNc2ccnc3cc(Cl)ccc23)cc1OC`, the zone of inhibition at 500 µg/mL in [1] was found to be 8 mm; in experiment [2], 7 mm; in experiment [3], 7 mm; in [4] it was 8 mm; in [5] it was 7 mm; in experiment [6], 8 mm.
Consider `Clc1ccc2c(NCC/N=C/c3ccccn3)ccnc2c1`, for which the zone of inhibition at 500 µg/mL in [1] amounted to 11 mm; in [2], 8 mm; in experiment [3], 9 mm; in [4] it was 8 mm; in experiment [5], 9 mm; in experiment [6] it was 7 mm. Besides, the MIC in [7] is 256 µg/mL (≈ 824 µM); in experiment [8], 512 µg/mL (≈ 1650 µM); in [9] it was 512 µg/mL (≈ 1650 µM); in experiment [10], 512 µg/mL (≈ 1650 µM); in experiment [11] it was 512 µg/mL (≈ 1650 µM); in [12], greater than 512 µg/mL. For the same molecule, the minimal bactericidal concentration (MBC) in experiment [13] is 512 µg/mL (≈ 1650 µM); in experiment [14], 512 µg/mL (≈ 1650 µM); in experiment [15] it was greater than 512 µg/mL; in experiment [16], greater than 512 µg/mL; in experiment [20], 512 µg/mL (≈ 1650 µM). In addition, the Ratio worked out at 2 in experiment [17], 1 in experiment [18] and 1 in experiment [22].
For `Clc1ccc2c(NCC/N=C/c3cccs3)ccnc2c1`, the zone of inhibition at 500 µg/mL in experiment [1] was determined as 9 mm; in experiment [2], 8 mm; in experiment [3], 8 mm; in experiment [4], 7 mm; in experiment [5], 6 mm; in experiment [6], 8 mm.
In the case of `Clc1ccc2c(NCC/N=C/c3ccccc3)ccnc2c1`, the zone of inhibition at 500 µg/mL in experiment [1] worked out at 10 mm; in [2], 8 mm; in experiment [3], 7 mm; in experiment [4], 8 mm; in experiment [5], 8 mm; in experiment [6] it was 6 mm.
As for `COc1ccc(/C=N/CCNc2ccnc3cc(Cl)ccc23)cc1`, the zone of inhibition at 500 µg/mL in experiment [1] amounted to 9 mm; in [2], 8 mm; in [3], 6 mm; in experiment [4], 8 mm; in experiment [5], 8 mm; in experiment [6] it was 9 mm.
As to `Oc1ccc(/C=N/CCNc2ccnc3cc(Cl)ccc23)cc1`, the zone of inhibition at 500 µg/mL in [1] worked out at 10 mm; in [2], 6 mm; in experiment [3], 8 mm; in experiment [4], 9 mm; in experiment [5], 10 mm; in experiment [6], 8 mm.
As for `CC(C)c1ccc(/C=N/CCNc2ccnc3cc(Cl)ccc23)cc1`, the zone of inhibition at 500 µg/mL in experiment [1] turned out to be 10 mm; in experiment [2], 7 mm; in [3], 8 mm; in experiment [4], 9 mm; in experiment [5] it was 12 mm; in [6], 10 mm. Also, the MIC is 256 µg/mL (≈ 728 µM) in [7]; greater than 512 µg/mL in experiment [8]; greater than 512 µg/mL in experiment [9]; 512 µg/mL (≈ 1460 µM) in experiment [10]; 256 µg/mL (≈ 728 µM) in experiment [11]; 256 µg/mL (≈ 728 µM) in experiment [12]. Further, the minimum bactericidal concentration (MBC) in experiment [13] is 256 µg/mL (≈ 728 µM); in experiment [16], greater than 512 µg/mL; in [20], greater than 512 µg/mL; in experiment [23] it was 256 µg/mL (≈ 728 µM). In addition, the Ratio in experiment [17] and in [24] was 1 in each case.
For the molecule `Oc1cccc(/C=N/CCNc2ccnc3cc(Cl)ccc23)c1`, the zone of inhibition at 500 µg/mL in experiment [1] was found to be 13 mm; in [2], 10 mm; in [3] it was 9 mm; in experiment [4], 10 mm; in experiment [5], 8 mm; in experiment [6] it was 10 mm. The MIC was 256 µg/mL (≈ 786 µM) in experiment [7]; 512 µg/mL (≈ 1570 µM) in experiment [8]; greater than 512 µg/mL in [9]; 512 µg/mL (≈ 1570 µM) in [10]; greater than 512 µg/mL in experiment [11]; 256 µg/mL (≈ 786 µM) in experiment [12]. Also, the MBC in [13] was 256 µg/mL (≈ 786 µM); in experiment [14] it was 512 µg/mL (≈ 1570 µM); in experiment [16], greater than 512 µg/mL; in experiment [23], 256 µg/mL (≈ 786 µM). For the same molecule, the Ratio in experiment [17], in experiment [18] and in experiment [24] was 1 in each case.
On to `O=[N+]([O-])c1ccc(/C=N/CCNc2ccnc3cc(Cl)ccc23)cc1`, for which the zone of inhibition at 500 µg/mL was found to be 12 mm in experiment [1]; 9 mm in [2]; 8 mm in experiment [3]; 10 mm in [4]; 8 mm in [5]; 10 mm in experiment [6]. Moreover, the MIC amounted to 256 µg/mL (≈ 722 µM) in [7]; 256 µg/mL (≈ 722 µM) in [8]; 512 µg/mL (≈ 1440 µM) in experiment [9]; 256 µg/mL (≈ 722 µM) in experiment [10]; 512 µg/mL (≈ 1440 µM) in [11]; 256 µg/mL (≈ 722 µM) in [12]. The MBC in experiment [13] is 256 µg/mL (≈ 722 µM); in experiment [14] it was 256 µg/mL (≈ 722 µM); in experiment [15], 512 µg/mL (≈ 1440 µM); in [16], greater than 512 µg/mL; in experiment [20], greater than 512 µg/mL; in [23] it was 256 µg/mL (≈ 722 µM). Also, the Ratio in experiment [17], in experiment [18], in experiment [19] and in experiment [24] was 1 throughout.
